From ChEMBL document CHEMBL1151370, “Marine animal biosynthetic constituents for cancer chemotherapy” (1981)

System: P388
Assay: Antineoplastic activity against mouse P388 cells
Format: functional

`CC(C)C[C@@H]1NC(=O)[C@@H]2CCCN2C(=O)[C@H](C(C)C)NC(=O)c2csc(n2)CNC(=O)c2csc(n2)[C@H](CCC(N)=O)NC1=O` [DOLASTATIN 3] gave an ED50 of 2.7 ×10⁻⁷ ug/ml.
